Assay results taken from PubChem BioAssay AID2060602 (Molecular Pharmacology Branch, DTP, NCI, 2025).
Where “and” joins values, the source holds several entries; their conditions need not be identical. Equal entries are not always repeated.

Tested on: 648629-189-R-J1-PDC complex spheroids viability
Experiment: Anticancer human tumor 648629-189-R-J1-PDC patient-derived bladder carcinoma cell line growth inhibition [CLK]
Details: for viability, T/C: stronger effect = lower value
Text: A high-throughput screen of multi-cell type tumor spheroids was designed to identify active combinations of […] and targeted small molecules. Complex spheroids include a stromal component modeled by human endothelial cells (HUVEC) and fibroblasts modeled by human mesenchymal stem cells (MSCs). The concentration ranges selected for each drug and investigational agent were based upon clinically achievable concentrations if the clinical Cmax of the agent was known.
Compounds. The drugs and investigational agents: cirtuvivint (SM08502; NSC835563), CC-671 (NSC850746), vemurafenib (NSC761431), tapotoclax (NSC804041), sotorasib (NSC818433), adagrasib (NSC831453), MRTX-1133 (NSC836407), BAY2416964 (NSC825713), copanlisib (NSC816437), inavolisib (NSC800729), abemaciclib (NSC768073), osimertinib (NSC779217), entinostat (NSC756642), eltanexor (KPT-8602, NSC794443), venetoclax (NSC766270), ceralasertib (NSC777638), bortezomib (NSC756655), olaparib (NSC753686), talazoparib (NSC767125), alisertib (NSC759677), peposertib (NSC802822), gemcitabine (NSC613327), 5-fluorouracil (NSC19893), SN-38 (NSC673596), oxaliplatin (NSC266046), paclitaxel (NSC125973), and doxorubicin (NSC123127), were obtained from the National Cancer Institute (NCI) Developmental Therapeutics Program Chemical Repository. The FDA-approved anticancer drug set is available from the Developmental Therapeutics Program at https://dtp.cancer.gov/organization/dscb/obtaining/available plates.htm. […] The stock solutions were prepared in dimethyl sulfoxide (DMSO, Sigma-Aldrich, St. Louis, MO, cat. D2650), except for the platinum complexes which were prepared in saline (Quality Biological, Gaithersburg, MD, cat. 114-055-101), at 800-fold the tested concentration and stored at -70 degrees C prior to their use. All drugs and investigational agents were tested over a range starting from a high concentration at or near the clinical Cmax and decreasing in half-log increments. If the clinical Cmax for an agent had not been determined, the highest concentration tested was 10 microM.
Cell Culture. All cells were maintained in an incubator at 37 degrees C and 5% CO2 with 95% humidity. The PDC lines were cultured according to standard operating procedures established by the NCI PDMR. Briefly, all PDCs were thawed and cultured in Matrigel-coated flasks prepared with a working solution of 1X Ham's F-12 nutrient mix, without supplementation (Invitrogen, Waltham, MA, cat. 11765054), 100 U/mL penicillin-streptomycin (Invitrogen, cat. 15140122), and 2.5% Matrigel (Corning Inc., Corning, NY, cat. 354248) for the first three passages. The 947758-054-R-J2-PDC line was cultured in 6B/Colon 1A media, which includes advanced DMEM/F-12 (Thermo Fisher Scientific, cat. 12634028), 10 mM HEPES (Thermo Fisher Scientific, cat. 15630080), 1X GlutaMAX supplement (Thermo Fisher Scientific, cat. 35050061), 0.1 mg/mL primocin (InvivoGen, cat. ant-pm-2), 10% defined fetal bovine serum, heat inactivated (HyClone Laboratories Inc., cat. SH30070.03HI), 1.25 mM N-Acetyl-L-cysteine (Sigma-Aldrich, cat. A9165), 10 mM nicotinamide (Sigma-Aldrich, cat. N0636), 1X B-27 supplement (Thermo Fisher Scientific, cat. 17504044), 1X N-2 supplement (Thermo Fisher Scientific, cat. 17502048), and 10 microM Y-27632 dihydrochloride (Tocris Bioscience, cat. 1254). The 876862-298-R-J1-PDC was cultured in 6E media, which includes all 6B/Colon 1A media components plus 50% L-WRN conditioned media (ATCC, cat. CRL-3276), 50 ng/mL recombinant human EGF recombinant protein (hEGF; Thermo Fisher Scientific, cat. PHG0311), 10 ng/mL recombinant human fibroblast growth factor 10 (hGFG-10; PeproTech, cat. 100-26), 1 ng/mL recombinant human fibroblast growth factor 2 (hFGF-2; PeproTech, cat. 100-18B), and 1 µM prostaglandin E2 (PGE2; Tocris, cat. 2296). The 227483-062-R1-J1-PDC line was cultured in Panc media, containing all 6E components except hFGF-2, with the addition of 500 nM SB-431542 (Selleckchem, cat. S1067) and 10 nM gastrin (Tocris, cat. 3006). […]
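Wherever viability, T/C is given: drug exposure lasted seven days before viability readout; 100% = DMSO vehicle control wells.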

With CCc1c2c(nc3ccc(O)cc13)-c1cc3c(c(=O)n1C2)COC(=O)[C@]3(O)CC the viability, T/C (compound 0.00316 µM) was 43.1% and 28.1%, the viability, T/C (compound 0.01 µM) was 17.6% and 10.2% and the viability, T/C (compound 0.0316 µM) was 6.99% and 10.1%. The viability, T/C (compound 0.1 µM) was 5.22% and 6.99%, the viability, T/C (compound 0.316 µM) was 4.52% and 6.06% and the viability, T/C (compound 1 µM) was 3.5% and 4.41%. For the same molecule, the IC50 (curve of compound) was less than 3.16 nM.

CN1CCN(c2cc(C(=O)Nc3cc4cc(-c5cnn(C)c5)ccc4cn3)ccn2)CC1 was tested, and the viability, T/C (compound 0.0316 µM) was 113% [middle of 12 runs], the viability, T/C (compound 0.1 µM) was 105% [middle of 12 runs] and the viability, T/C (compound 1 µM) was 0.38% [middle of 11 runs]. The viability, T/C (compound 3.16 µM) was 0.16% [middle of 7 runs], the viability, T/C (compound 10 µM) was 0.15% [middle of 7 runs] and the IC50 (compound alone, run of 07/31/2023) was 286 nM [middle of 11 runs].

CNC(=O)c1ccc(Nc2nc(OC3CCCC3)c3c(-c4ccc5nc(C)oc5c4)c[nH]c3n2)c(OC)c1 was tested, and the viability, T/C (compound 0.0316 µM) was 108% [middle of 12 runs], the viability, T/C (compound 0.1 µM) was 88.3% [middle of 12 runs] and the viability, T/C (compound 0.316 µM) was 28% [middle of 12 runs]. The viability, T/C (compound 1 µM) was 19.8% [middle of 12 runs], the viability, T/C (compound 3.16 µM) was 19% [middle of 12 runs] and the viability, T/C (compound 10 µM) was 20% [middle of 12 runs]. The IC50 (compound alone, run of 08/01/2023) was 209 nM [middle of 10 runs].

In the case of COC1C=CCC(C)C(C)S(=O)(=O)NC(=O)c2ccc3c(c2)N(CC2CCC21)CC1(CCCc2cc(Cl)ccc21)CO3 (stereo unspecified), the viability, T/C (compound 0.0316 µM) is reported as 102% and 92.4%, the viability, T/C (compound 0.1 µM) is reported as 91% and 85% and the viability, T/C (compound 0.316 µM) is reported as 77% and 89.5%. The viability, T/C (compound 1 µM) was 79% and 77.1%, the viability, T/C (compound 3.16 µM) was 25.9% and 15.1% and the viability, T/C (compound 10 µM) was 2.88% and 3.41%. For the same molecule, the IC50 (curve of compound) was 1840 nM and 1650 nM.

With COc1c(OCCCN2CCOCC2)ccc2c3n(c(=NC(=O)c4cnc(N)nc4)nc12)CCN3 the viability, T/C (compound 0.00316 µM) was 115% and 94.4%, the viability, T/C (compound 0.01 µM) was 90.3% and 90.5% and the viability, T/C (compound 0.0316 µM) was 74.8% and 77.7%. For the same molecule, the viability, T/C (compound 0.1 µM) was 46% and 41.9%, the viability, T/C (compound 0.316 µM) was 16.8% and 13.3% and the viability, T/C (compound 1 µM) was 7.93% and 6.55%. For the same molecule, the IC50 (curve of compound) was 78.3 nM and 76.7 nM.

Cn1ncnc1[C@H]1c2n[nH]c(=O)c3cc(F)cc(c23)N[C@@H]1c1ccc(F)cc1 was tested, and the viability, T/C (compound 0.000316 µM) was 106% and 98.8%, the viability, T/C (compound 0.001 µM) was 84.9% and 101% and the viability, T/C (compound 0.00316 µM) was 99.2% and 97.4%. The viability, T/C (compound 0.01 µM) was 83.2% and 92.6%, the viability, T/C (compound 0.0316 µM) was 73.8% and 77.2% and the viability, T/C (compound 0.1 µM) was 67.4% and 71.5%. The IC50 (curve of compound) was greater than 100 nM.

For NC(=O)C(=Cn1cnc(-c2cc(C(F)(F)F)cc(C(F)(F)F)c2)n1)c1cncnc1, the viability, T/C (compound 0.00949 µM) was 102% and 105%, the viability, T/C (compound 0.03 µM) was 86.1% and 84.8% and the viability, T/C (compound 0.0949 µM) was 24.7% and 19.3%. For the same molecule, the viability, T/C (compound 0.3 µM) was 9.87% and 6.77%, the viability, T/C (compound 0.949 µM) was 3.5% and 4.03% and the viability, T/C (compound 3 µM) was 1.5% and 1.39%. For the same molecule, the IC50 (curve of compound) was 59.3 nM and 55.4 nM.

Nc1ccccc1NC(=O)c1ccc(CNC(=O)OCc2cccnc2)cc1 was tested, and the viability, T/C (compound 0.0316 µM) was 115% and 88%, the viability, T/C (compound 0.1 µM) was 92.5% and 91.6% and the viability, T/C (compound 0.316 µM) was 88.5% and 77.7%. The viability, T/C (compound 1 µM) was 72.7% and 64%, the viability, T/C (compound 3.16 µM) was 33% and 24.8% and the viability, T/C (compound 10 µM) was 4.51% and 3.32%. The IC50 (curve of compound) was 1950 nM and 1460 nM.

In the case of Nc1ccn(C2OC(CO)C(O)C2(F)F)c(=O)n1 (stereo unspecified), the viability, T/C (compound 0.0316 µM) is reported as 49.6% and 38.5%, the viability, T/C (compound 0.1 µM) is reported as 18.4% and 12.3% and the viability, T/C (compound 0.316 µM) is reported as 11.4% and 11%. The viability, T/C (compound 1 µM) was 6.88% and 9.43%, the viability, T/C (compound 3.16 µM) was 6.14% and 8.17% and the viability, T/C (compound 10 µM) was 4.28% and 6.46%. It also gave an IC50 (curve of compound) of less than 31.6 nM.

For O=C(c1cc(Cc2n[nH]c(=O)c3ccccc23)ccc1F)N1CCN(C(=O)C2CC2)CC1, the viability, T/C (compound 0.0316 µM) was 109% and 101%, the viability, T/C (compound 0.1 µM) was 90.8% and 97.7% and the viability, T/C (compound 0.316 µM) was 92% and 108%. For the same molecule, the viability, T/C (compound 1 µM) was 79.5% and 103%, the viability, T/C (compound 3.16 µM) was 75.7% and 84.3% and the viability, T/C (compound 10 µM) was 57.9% and 71.5%. For the same molecule, the IC50 (curve of compound) was greater than 10000 nM.

O=c1[nH]cc(F)c(=O)[nH]1 was tested, and the viability, T/C (compound 0.0316 µM) was 101% and 97.3%, the viability, T/C (compound 0.1 µM) was 92.7% and 84.2% and the viability, T/C (compound 0.316 µM) was 80.1% and 69.3%. The viability, T/C (compound 1 µM) was 57.8% and 36%, the viability, T/C (compound 3.16 µM) was 29.1% and 31.9% and the viability, T/C (compound 10 µM) was 19.3% and 26.1%. The IC50 (curve of compound) was 1310 nM and 632 nM.
